Laboratory results reported in paper PMC3914206.

What follows are molecules tested against T1, panel of 442 kinases (Homo sapiens, UniProt Q99683). Conditions: Compound Concentration 10 µM.
T1 construct: purchased KINOMEscan
T1 sequence (Q99683 1-1374): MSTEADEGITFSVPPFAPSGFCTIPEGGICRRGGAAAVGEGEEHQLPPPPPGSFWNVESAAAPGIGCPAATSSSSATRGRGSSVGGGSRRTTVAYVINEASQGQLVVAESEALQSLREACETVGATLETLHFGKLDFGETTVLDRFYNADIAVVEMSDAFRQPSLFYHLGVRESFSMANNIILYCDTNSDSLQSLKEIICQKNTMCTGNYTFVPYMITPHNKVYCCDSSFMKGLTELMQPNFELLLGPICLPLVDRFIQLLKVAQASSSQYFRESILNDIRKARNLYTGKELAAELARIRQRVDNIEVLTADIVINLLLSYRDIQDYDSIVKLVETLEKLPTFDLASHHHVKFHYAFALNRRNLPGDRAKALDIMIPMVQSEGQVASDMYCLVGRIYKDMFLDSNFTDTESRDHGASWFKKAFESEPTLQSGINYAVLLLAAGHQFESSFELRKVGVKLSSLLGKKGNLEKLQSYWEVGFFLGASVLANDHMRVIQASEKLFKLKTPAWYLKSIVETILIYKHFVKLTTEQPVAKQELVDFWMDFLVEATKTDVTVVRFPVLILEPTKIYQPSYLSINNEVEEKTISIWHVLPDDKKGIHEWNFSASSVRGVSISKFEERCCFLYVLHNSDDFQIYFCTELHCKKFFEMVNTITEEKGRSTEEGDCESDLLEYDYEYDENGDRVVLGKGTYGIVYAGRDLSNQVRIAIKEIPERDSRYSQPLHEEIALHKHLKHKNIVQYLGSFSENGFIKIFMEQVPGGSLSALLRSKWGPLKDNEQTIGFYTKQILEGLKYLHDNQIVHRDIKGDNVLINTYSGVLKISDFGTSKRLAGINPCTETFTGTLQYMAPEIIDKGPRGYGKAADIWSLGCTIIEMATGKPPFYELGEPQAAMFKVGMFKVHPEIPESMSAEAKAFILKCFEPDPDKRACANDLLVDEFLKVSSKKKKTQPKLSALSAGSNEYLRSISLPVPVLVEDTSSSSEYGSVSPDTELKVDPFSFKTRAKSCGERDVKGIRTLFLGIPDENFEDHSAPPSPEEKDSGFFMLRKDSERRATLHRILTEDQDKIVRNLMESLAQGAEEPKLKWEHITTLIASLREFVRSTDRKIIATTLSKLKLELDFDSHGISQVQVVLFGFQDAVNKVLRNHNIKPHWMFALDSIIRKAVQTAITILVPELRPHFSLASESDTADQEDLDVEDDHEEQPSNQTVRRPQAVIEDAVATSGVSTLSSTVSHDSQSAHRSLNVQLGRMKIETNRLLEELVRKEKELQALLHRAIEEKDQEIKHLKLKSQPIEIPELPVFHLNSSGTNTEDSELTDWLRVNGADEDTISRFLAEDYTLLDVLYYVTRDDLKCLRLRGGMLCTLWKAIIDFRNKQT
Type: binding
From the text: We assessed the selectivity of members of this scaffold using the KINOMEscan methodology across a near comprehensive panel of 442 kinases [[18,27]].
In the case of `COc1cc(C(=O)N2CCC(N3CCN(C)CC3)CC2)ccc1Nc1ncc2c(n1)N(C)c1ccccc1C(=O)N2C` [15 (LRRK2-IN-1)], the “KINOMEscan: ASK1” value is reported as 100. `COc1cc(C(=O)N2CCC(N3CCN(C)CC3)CC2)ccc1Nc1ncc2c(n1)N(C1CCCC1)c1ccccc1C(=O)N2C` [Compound 25, 11-cyclopentyl-2-((2-methoxy-4-(4-(4-methylpiperazin-1-yl)piperidine-1-carbonyl)phenyl)amino)-5-methyl-5H-benzo[e]pyrimido[5,4-b][1,4]diazepin-6(11H)-one] was tested, and the “KINOMEscan: ASK1” value was 100. With `CCOc1cc(C(=O)N2CCC(N3CCN(C)CC3)CC2)ccc1Nc1ncc2c(n1)N(C1CCCC1)c1ccccc1C(=O)N2C` [Compound 26] the “KINOMEscan: ASK1” value was 100.
